In paper PMC9737349, “Discovery of 5-Methylthiazole-Thiazolidinone Conjugates as Potential Anti-Inflammatory Agents: Molecular Target Identification and In Silico Studies” (Molecules, 2022):
Each block holds one compound with its values, some of them ahead of it.

Key:
[1] = tested on: carrageenan-induced mouse paw edema; assay: Carrageenan-induced mouse paw oedema; type: in vivo; settings: mice, i.p. 0.15 mmol/kg 5 min before carrageenan, paw weight increase after 3.5 h; for inhibition in vivo at 150 µmol/kg: Mus musculus, ip
Description: For the study of possible anti-inflammatory action, the swelling caused in the sole of the right hind limb by intradermal administration of carrageenan was used as a model of inflammation. Carrageenan-induced edema is a non-specific inflammation that results from a number of different transmitters and resembles human acute inflammation.
The animals were weighed and divided into control, standard and test groups. Each group contained 10 mice. […] An aqueous solution of carrageenan 0.1 mL, 1% w/v) was injected subcutaneously to the sub-plantar region of the right hind paw, with the left paw as control. The tested compounds (suspended in water with a few drops of Tween 80) were given i.p. (0.15 mmol/kg) 5 min before the carrageenan administration. After 3.5 h, the hind paws were excised and were weighed separately. The produced oedema was estimated as a paw weight increase.

human recombinant COX-2 = target: T1, human recombinant COX-2 (Homo sapiens, UniProt P35354); assay: Inhibition of COX-2 activity (Cayman COX Inhibitor Screening Assay kit); type: biochemical; settings: read-out: Inhibition, COX-2, Inhibition (%) 200 μM
T1 construct: purchased Cayman Chemical Co., Ann Arbor, MI
T1 sequence (P35354 18-604): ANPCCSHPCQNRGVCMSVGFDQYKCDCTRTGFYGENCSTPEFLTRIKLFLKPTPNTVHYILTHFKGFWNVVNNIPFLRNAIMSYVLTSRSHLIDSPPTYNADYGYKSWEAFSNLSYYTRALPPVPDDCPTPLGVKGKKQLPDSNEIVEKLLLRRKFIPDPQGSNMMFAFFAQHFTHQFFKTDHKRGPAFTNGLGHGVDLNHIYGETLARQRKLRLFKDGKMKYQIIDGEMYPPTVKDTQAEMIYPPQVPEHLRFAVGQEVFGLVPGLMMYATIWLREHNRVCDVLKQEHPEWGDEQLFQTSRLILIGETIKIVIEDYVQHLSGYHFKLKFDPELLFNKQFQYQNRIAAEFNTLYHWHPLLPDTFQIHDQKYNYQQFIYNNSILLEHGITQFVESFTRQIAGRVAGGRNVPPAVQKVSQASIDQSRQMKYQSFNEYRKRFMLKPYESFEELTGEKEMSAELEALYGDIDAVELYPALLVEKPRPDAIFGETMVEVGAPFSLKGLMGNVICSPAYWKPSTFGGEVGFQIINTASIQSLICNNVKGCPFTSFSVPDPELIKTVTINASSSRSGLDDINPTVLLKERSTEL
Description: (§1) The effect of compounds on COX-1 and COX-2 inhibition was measured using a commercial kit provided by Cayman (Cayman Chemical Co., Ann Arbor, MI), applying the instructions of the manufacturer. The kit uses ovine COX-1 and human recombinant COX-2 enzymes. […] The assay measures PGF2a produced by SnCl2 reduction of COX-derived PGH2.

soybean LOX = target: T2, soybean LOX (Glycine max, UniProt P08170); assay: Inhibition of LOX activity; type: biochemical
T2 construct: purchased Sigma (St. Louis, MO, USA)
T2 sequence (P08170 1-839): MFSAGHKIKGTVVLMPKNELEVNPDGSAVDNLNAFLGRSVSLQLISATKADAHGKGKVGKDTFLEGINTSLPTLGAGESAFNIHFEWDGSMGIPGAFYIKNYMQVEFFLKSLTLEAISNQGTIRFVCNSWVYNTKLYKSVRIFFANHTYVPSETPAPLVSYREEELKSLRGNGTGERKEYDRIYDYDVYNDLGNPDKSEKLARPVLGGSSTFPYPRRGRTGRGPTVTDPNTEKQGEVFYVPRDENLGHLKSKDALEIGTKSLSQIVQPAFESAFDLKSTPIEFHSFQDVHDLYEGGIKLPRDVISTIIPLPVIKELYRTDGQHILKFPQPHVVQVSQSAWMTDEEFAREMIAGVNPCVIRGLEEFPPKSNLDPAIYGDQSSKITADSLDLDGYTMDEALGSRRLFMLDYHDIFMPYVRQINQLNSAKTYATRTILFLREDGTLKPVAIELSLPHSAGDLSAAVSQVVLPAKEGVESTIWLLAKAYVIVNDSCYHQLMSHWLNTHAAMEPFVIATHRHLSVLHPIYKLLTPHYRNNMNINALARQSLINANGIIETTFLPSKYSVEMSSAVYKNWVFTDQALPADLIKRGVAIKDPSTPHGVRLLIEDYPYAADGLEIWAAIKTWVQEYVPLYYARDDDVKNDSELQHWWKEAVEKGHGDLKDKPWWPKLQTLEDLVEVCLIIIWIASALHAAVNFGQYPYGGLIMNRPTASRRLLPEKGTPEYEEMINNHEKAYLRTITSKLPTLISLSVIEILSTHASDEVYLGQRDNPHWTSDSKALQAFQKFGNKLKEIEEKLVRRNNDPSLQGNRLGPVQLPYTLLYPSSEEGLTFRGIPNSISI
Description: The reaction mixture contained (final concentration 300 μM) the test compounds, dissolved in absolute ethanol (10–300 μM), or the solvent (control), soybean LOX, dissolved in 0.9% NaCl solution (250 u/mL) and sodium linoleate (100 μM), in Tris-HCl buffer, pH 9.0. The reaction was followed for 7 min at 28 °C, recording the absorbance (234 nm) of a conjugated diene structure, due to the formation of 13-hydroperoxy-linoleic acid. […] For the estimation of the type of inhibition, the above experiments were repeated, using 1 mM sodium linoleate, which is higher than the saturating substrate concentration.

ovine COX-1 = target: T3, ovine COX-1 (Ovis aries, UniProt P05979); assay: Inhibition of COX-1 activity (Cayman COX Inhibitor Screening Assay kit); type: biochemical
T3 construct: purchased Cayman Chemical Co., Ann Arbor, MI
T3 sequence (P05979 25-600): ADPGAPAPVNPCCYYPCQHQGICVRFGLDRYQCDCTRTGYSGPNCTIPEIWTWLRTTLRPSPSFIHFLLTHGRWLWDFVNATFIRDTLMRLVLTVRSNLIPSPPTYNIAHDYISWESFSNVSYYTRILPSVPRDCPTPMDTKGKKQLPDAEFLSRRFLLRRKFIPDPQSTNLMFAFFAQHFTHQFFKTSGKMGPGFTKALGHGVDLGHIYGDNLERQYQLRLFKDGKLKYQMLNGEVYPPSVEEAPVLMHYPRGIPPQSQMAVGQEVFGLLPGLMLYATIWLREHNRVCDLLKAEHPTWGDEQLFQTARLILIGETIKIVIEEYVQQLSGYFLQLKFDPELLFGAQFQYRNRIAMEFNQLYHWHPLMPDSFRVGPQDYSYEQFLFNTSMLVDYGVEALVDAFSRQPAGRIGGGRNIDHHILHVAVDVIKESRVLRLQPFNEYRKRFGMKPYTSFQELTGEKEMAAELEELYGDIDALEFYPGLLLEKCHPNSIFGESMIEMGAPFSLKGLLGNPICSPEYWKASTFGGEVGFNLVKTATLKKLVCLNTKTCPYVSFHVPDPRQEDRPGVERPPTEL
Description: as §1

SMILES: Cc1cnc(N=C2NC(=O)C(=Cc3c(Cl)cccc3Cl)S2)s1 [Compound 15]
- inhibition in vivo at 150 µmol/kg [1]: 39.4 ± 2.3%

SMILES: Cc1cnc(N=C2NC(=O)C(=Cc3ccc(O)cc3)S2)s1 [Compound 3]
- inhibition in vivo at 150 µmol/kg [1]: 31.4%
- Oedema Inhibition (%) [1]: 31.4 ± 2.3 %

SMILES: Cc1cnc(N=C2NC(=O)C(=Cc3ccccc3Cl)S2)s1 [Compound 11]
- inhibition in vivo at 150 µmol/kg [1]: 43 ± 1.7%

SMILES: Cc1cnc(N=C2NC(=O)C(=Cc3ccc(Br)cc3)S2)s1 [Compound 17]
- inhibition in vivo at 150 µmol/kg [1]: 41.4 ± 1.9%

SMILES: Cc1cnc(N=C2NC(=O)C(=Cc3ccccc3)S2)s1 [Compound 1]
- inhibition in vivo at 150 µmol/kg [1]: 51.6 ± 1.5%

SMILES: Cc1cnc(N=C2NC(=O)C(=Cc3ccc(Cl)cc3)S2)s1 [Compound 12]
- inhibition in vivo at 150 µmol/kg [1]: 55.6%
- Oedema Inhibition (%) [1]: 55.6 ± 1.5 %

SMILES: Cc1cnc(N=C2NC(=O)C(=Cc3cccc(F)c3)S2)s1 [Compound 9]
- inhibition in vivo at 150 µmol/kg [1]: 34.8 ± 2.1%

SMILES: Cc1cnc(N=C2NC(=O)C(=Cc3cccc([N+](=O)[O-])c3)S2)s1 [Compound 7]
- inhibition in vivo at 150 µmol/kg [1]: 54.5 ± 1.4%

SMILES: Cc1cnc(N=C2NC(=O)C(=Cc3ccccc3[N+](=O)[O-])S2)s1 [Compound 6]
- inhibition in vivo at 150 µmol/kg [1]: 48.7 ± 1.8%

- inhibition at 200 µM (human recombinant COX-2): 0%
- inhibition at 100 µM (soybean LOX): 37.2 ± 1.8%
- IC50 (ovine COX-1): 1100 ± 300 nM
- inhibition at 200 µM (ovine COX-1): 100%
SMILES: Cc1cnc(N=C2NC(=O)C(=Cc3cccc(Cl)c3Cl)S2)s1 [Compound 13]
- inhibition in vivo at 150 µmol/kg [1]: 57.8%
- Oedema Inhibition (%) [1]: 57.8 ± 1.3 %

SMILES: Cc1cnc(N=C2NC(=O)C(=Cc3ccc(F)cc3)S2)s1 [Compound 10]
- inhibition in vivo at 150 µmol/kg [1]: 47.8 ± 1.6%

SMILES: Cc1cnc(N=C2NC(=O)C(=Cc3ccc(Cl)cc3Cl)S2)s1 [Compound 14]
- inhibition in vivo at 150 µmol/kg [1]: 35.2 ± 2.1%

SMILES: COc1ccc(C=C2SC(=Nc3ncc(C)s3)NC2=O)cc1 [Compound 4]
- inhibition in vivo at 150 µmol/kg [1]: 48.3 ± 1.8%

SMILES: COc1ccc(OC)c(C=C2SC(=Nc3ncc(C)s3)NC2=O)c1 [Compound 5]
- inhibition in vivo at 150 µmol/kg [1]: 44.9 ± 1.7%

- inhibition at 200 µM (human recombinant COX-2): 0%
- inhibition at 100 µM (soybean LOX): 46.7 ± 1.5%
- IC50 (ovine COX-1): 1080 ± 300 nM
- inhibition at 200 µM (ovine COX-1): 100%
SMILES: Cc1cnc(N=C2NC(=O)C(=Cc3cccc(Br)c3)S2)s1 [Compound 16]
- inhibition in vivo at 150 µmol/kg [1]: 57.6%
- Oedema Inhibition (%) [1]: 57.6 ± 1.4 %

SMILES: Cc1cnc(N=C2NC(=O)C(=Cc3ccccc3O)S2)s1 [Compound 2]
- inhibition in vivo at 150 µmol/kg [1]: 43.1 ± 1.9%

SMILES: COc1ccc2cc([C@H](C)C(=O)O)ccc2c1 [Naproxen, reference compound]
- inhibition at 200 µM (human recombinant COX-2): 17 ± 2.3%

- inhibition at 200 µM (human recombinant COX-2): 0%
- inhibition at 100 µM (soybean LOX): 7.88 ± 2.1%
- IC50 (ovine COX-1): 14400 ± 700 nM
- inhibition at 200 µM (ovine COX-1): 100%
SMILES: Cc1cnc(N=C2NC(=O)C(=Cc3ccc([N+](=O)[O-])cc3)S2)s1 [Compound 8]
- inhibition in vivo at 150 µmol/kg [1]: 55.4%
- Oedema Inhibition (%) [1]: 55.4 ± 1.5 %
